Where two headings read alike, the source gives them in different places.
Legend:
[1] = tested on: GIST 430 cells; assay: GIST 430 Cell Proliferation Assay (resazurin); assay type: cell-based; details: Homo sapiens; GIST430 cell proliferation
Experimental: GIST 430 Cell Proliferation Assay
(§1) A serial dilution of test compound was dispensed into a 96-well black clear bottom plate (Corning, Corning, NY). Five thousand cells were added per well in 200 μL complete growth medium. Plates were incubated for 115 h at 37 degrees Celsius, 5% CO2, 95% humidity. At the end of the incubation period 40 μL of a 440 μM solution of resazurin (Sigma, St. Louis, MO) in PBS was added to each well and incubated for an additional 5 h at 37 degrees Celsius, 5% CO2, 95% humidity. Plates were read on a Synergy2 reader (Biotek, Winooski, VT) using an excitation of 540 nm and an emission of 600 nm. Data was analyzed using Prism software (Graphpad, San Diego, CA) to calculate IC50 values.

[2] = target: c-KIT kinase (uKIT) (Homo sapiens (Human), UniProt P10721); assay: Biochemical Assay for uKIT (coupled pyruvate kinase/lactate dehydrogenase assay); details: Inhibition of biochemical activity of uKIT kinase; 1 mM ATP
Experimental: Biochemical Assay for uKIT
Activity of c-KIT kinase (SEQ. ID NO. 1 or SEQ. ID NO. 2) was determined spectroscopically using a coupled pyruvate kinase/lactate dehydrogenase assay that continuously monitors the ATP hydrolysis-dependent oxidation of NADH (e.g., Schindler et al. Science (2000) 289: 1938-1942). Assays were conducted in 384-well plates (100 μL final volume) using 16 nM (Decode, SEQ ID No. 1) or 4.36 nM (Signal Chem, SEQ. ID No. 2), 0.7 mg/mL PE4Y substrate, 1.5 units pyruvate kinase, 2.1 units lactate dehydrogenase, 1 mM phosphoenol pyruvate, 0.28 mM NADH and 1 mM ATP in assay buffer (100 mM Tris, pH 7.5, 15 mM MgCl2, 0.5 mM DTT, 0.1% octyl-glucoside, 0.002% (w/v) BSA, and 0.002% Triton X-100). Inhibition of KIT was measured by adding serial diluted test compound (final assay concentration of 1% DMSO). A decrease in absorption at 340 nm was monitored continuously for 6 h at 30° C. on a multi-mode microplate reader (BioTek). The reaction rate was calculated using the 2-3 h time frame. The reaction rate at each concentration of compound was converted to percent inhibition using controls (i.e., reaction with no test compound and reaction with a known inhibitor) and IC50 values were calculated using software routines in Prism (GraphPad software).

[3] = tested on: Ba/F3 KIT mutant cells; assay: Ba/F3 mutant KIT Cell Proliferation Assays (resazurin); assay type: cell-based; details: Mus musculus, BaF3
Experimental: Ba/F3 KIT Mutant Cell Line Transduction and Expansion
Several different KIT cDNA encoding various primary and secondary mutations were cloned into a pLV(Exp]-CMV>(cDNA):IRES:puro vector. These vectors were constructed and packaged by VectorBuilder.
Exponentially grown Ba/F3 cells (1×10^6 cells in 1 ml medium) were infected with 60 μl of viral suspension in a 6-well plate in the presence of mIL-3 (10 ng/ml) and polybrene (7.5 μg/ml) (Vector Builder) and incubated for 16 h. After 16 h, the cells were centrifuged, and viral supernatant was discarded. The cells were then re-suspended in fresh medium and allowed to recover for another day. After 72 h post infection, the cells were seeded with complete medium with mIL-3 and with 1 μg/ml puromycin added to medium for selection. After 48 h, cells without viral infection die, whereas successfully transduced cells were collected and changed to fresh medium with 5 ng/ml of IL-3. After a week or two with gradual withdrawal of mIL3 the cells that can continue to proliferate in the absence of mIL3 were exponentially expanded and were frozen down for banking.
Ba/F3 mutant KIT Cell Proliferation Assays
as §1, with “a 384-well” for “a 96-well”, “NY). Six hundred and twenty-five” for “NY). Five thousand”, “in 50” for “in 200”, “for 68” for “for 115”, “at 37° C.,” for “at 37 degrees Celsius,”, “period 10” for “period 40”

[4] = Ba/F3 KIT AYdup-V654A mutant cell proliferation, read-out: AYdup-V654A IC50
[5] = Ba/F3 KIT exon11del-V654A mutant cell proliferation, read-out: exon11del-V654A IC50
[6] = Ba/F3 KIT exon11del-Y823D mutant cell proliferation, read-out: exon11del-Y823D IC50
[7] = Ba/F3 KIT AYdup mutant cell proliferation, read-out: AYdup IC50
[8] = Ba/F3 KIT AYdup-D816G mutant cell proliferation, read-out: AYdup-D816G IC50

Chain of c-KIT kinase (uKIT) (P10721 other isoform, or with tags, fused parts or gaps): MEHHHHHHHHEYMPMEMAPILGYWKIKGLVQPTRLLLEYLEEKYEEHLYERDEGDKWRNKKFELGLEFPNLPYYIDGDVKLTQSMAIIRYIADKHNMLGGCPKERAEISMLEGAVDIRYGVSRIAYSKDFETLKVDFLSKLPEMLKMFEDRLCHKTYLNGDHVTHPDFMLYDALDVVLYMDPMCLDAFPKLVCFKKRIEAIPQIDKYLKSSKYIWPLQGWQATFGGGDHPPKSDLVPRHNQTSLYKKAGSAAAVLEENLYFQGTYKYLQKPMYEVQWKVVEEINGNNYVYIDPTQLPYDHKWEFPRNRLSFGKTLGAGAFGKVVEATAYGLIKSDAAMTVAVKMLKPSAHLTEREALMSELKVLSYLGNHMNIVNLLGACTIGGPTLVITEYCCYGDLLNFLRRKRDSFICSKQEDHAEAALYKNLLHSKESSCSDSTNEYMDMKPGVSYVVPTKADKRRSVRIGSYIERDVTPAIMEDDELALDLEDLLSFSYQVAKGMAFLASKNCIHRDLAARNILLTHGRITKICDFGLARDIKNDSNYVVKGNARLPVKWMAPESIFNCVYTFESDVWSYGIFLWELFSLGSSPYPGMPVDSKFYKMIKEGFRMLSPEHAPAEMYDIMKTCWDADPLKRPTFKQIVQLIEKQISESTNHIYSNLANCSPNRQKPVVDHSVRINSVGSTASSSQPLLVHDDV

IC50 [2]	IC50 [3, 4]	IC50 [3, 5]	IC50 [3, 6]	IC50 [3, 7]	IC50 [3, 8]	Compound	IC50 [1]
0.1 to 1 µM	0.1 to 1 µM	0.01 to 0.1 µM	–	–	–	CCN(C(=O)CC(=O)Nc1ccc(Nc2ncnc3cc(OCCOC)cc(F)c23)cc1)C(C)C [Example 146]	0.1 to 1 µM
0.01 to 0.1 µM	0.01 to 0.1 µM	0.01 to 0.1 µM	0.1 to 1 µM	–	–	COCCOc1cc(F)c2c(Nc3ccc(NC(=O)CC(=O)N4CCCC4(C)C)cc3)ncnc2c1 [Example 140]	0.01 to 0.1 µM
≤ 0.01 µM	0.01 to 0.1 µM	0.01 to 0.1 µM	≤ 0.01 µM	–	–	COCCOc1cc(OC)c2c(Nc3ccc(NC(=O)NCCC(C)(C)F)cc3)ncnc2c1 [Example 181]	0.01 to 0.1 µM
≤ 0.01 µM	0.01 to 0.1 µM	0.01 to 0.1 µM	0.01 to 0.1 µM	0.01 to 0.1 µM	≤ 0.01 µM	COCCOc1cc(F)c2c(Nc3ccc(NC(=O)CC4CCC(C)(C)CC4)cc3)ncnc2c1 [Example 69]	≤ 0.01 µM
0.01 to 0.1 µM	0.01 to 0.1 µM	0.01 to 0.1 µM	0.1 to 1 µM	–	–	COCCOc1cc(F)c2c(Nc3ccc(NC(=O)C(F)(F)C(=O)NCC(C)(C)C)cc3)ncnc2c1 [Example 60]	0.01 to 0.1 µM
0.1 to 1 µM	> 1 µM	> 1 µM	–	–	–	COCCOc1cc(F)c2c(Nc3ccc(NC(=O)NCCC4COC4)cc3)ncnc2c1 [Example 27]	> 1 µM
≤ 0.01 µM	0.01 to 0.1 µM	≤ 0.01 µM	0.01 to 0.1 µM	–	–	CC(C)(F)CCNC(=O)Nc1ccc(Nc2ncnc3cc(OCC4CCOCC4)cc(F)c23)cc1 [Example 123]	0.01 to 0.1 µM
0.1 to 1 µM	0.1 to 1 µM	0.01 to 0.1 µM	> 1 µM	–	–	COCCOc1cc(F)c2c(Nc3ccc(NC(=O)CC(=O)NC[C@@H]4CCCO4)cc3)ncnc2c1 [Example 121]	0.1 to 1 µM
≤ 0.01 µM	0.01 to 0.1 µM	0.01 to 0.1 µM	0.01 to 0.1 µM	≤ 0.01 µM	≤ 0.01 µM	COCCOc1cc(F)c2c(Nc3ccc(NC(=O)NCCC4(OC)CC4)cc3)ncnc2c1 [Example 32]	0.01 to 0.1 µM
0.01 to 0.1 µM	0.1 to 1 µM	0.01 to 0.1 µM	> 1 µM	–	–	COCCOc1cc(F)c2c(Nc3ccc(NC(=O)CC(=O)NCCC(C)(C)OC)cc3)ncnc2c1 [Example 107]	0.1 to 1 µM
≤ 0.01 µM	0.01 to 0.1 µM	≤ 0.01 µM	0.01 to 0.1 µM	–	–	COCCOc1cc(F)c2c(Nc3ccc(NC(=O)CC(=O)NCC4CC5(CCC5)C4)cc3)ncnc2c1 [Example 118]	0.01 to 0.1 µM
≤ 0.01 µM	0.01 to 0.1 µM	0.01 to 0.1 µM	0.1 to 1 µM	≤ 0.01 µM	0.01 to 0.1 µM	COCCOc1cc(F)c2c(Nc3ccc(NC(=O)NCCC(C)(C)F)cc3)ncnc2c1 [Example 2, 1-(3-fluoro-3-methylbutyl)-3-(4-((5-fluoro-7-(2-methoxyethoxy)quinazolin-4-yl)amino)phenyl)urea]	0.01 to 0.1 µM
0.01 to 0.1 µM	0.01 to 0.1 µM	0.1 to 1 µM	0.1 to 1 µM	–	–	COCCOc1cc(F)c2c(Nc3ccc(NC(=O)CC(=O)N4CCC(C(F)(F)F)C4)cc3)ncnc2c1 (centres unmarked) [Example 153]	0.01 to 0.1 µM
≤ 0.01 µM	≤ 0.01 µM	≤ 0.01 µM	0.01 to 0.1 µM	–	–	COCCOc1cc(F)c2c(Nc3ccc(NC(=O)NCC=C(C)C)cc3)ncnc2c1 [Example 133]	0.01 to 0.1 µM
> 1 µM	–	0.1 to 1 µM	–	–	–	COCCOc1cc(F)c2c(Nc3ccc(NC(=O)CC(=O)NCCN4CCOCC4)cc3)ncnc2c1 [Example 84]	> 1 µM
≤ 0.01 µM	≤ 0.01 µM	≤ 0.01 µM	0.01 to 0.1 µM	≤ 0.01 µM	≤ 0.01 µM	COCCOc1cc(F)c2c(Nc3ccc(NC(=O)NCCC(C)(C)C)cc3)ncnc2c1 [Example 9]	≤ 0.01 µM

IC50 [2]	IC50 [3, 4]	IC50 [3, 5]	IC50 [3, 6]	IC50 [3, 7]	IC50 [3, 8]	Compound	IC50 [1]
≤ 0.01 µM	0.01 to 0.1 µM	0.01 to 0.1 µM	0.01 to 0.1 µM	≤ 0.01 µM	0.01 to 0.1 µM	COCCOc1cc(F)c2c(Nc3ccc(NC(=O)NCCC4(C#N)CC4)cc3)ncnc2c1 [Example 35]	0.01 to 0.1 µM
≤ 0.01 µM	0.01 to 0.1 µM	≤ 0.01 µM	0.1 to 1 µM	–	–	COCCOc1cc(F)c2c(Nc3ccc(NC(=O)CC(=O)NCC4(C)CC4)cc3)ncnc2c1 [Example 85]	≤ 0.01 µM
0.01 to 0.1 µM	0.01 to 0.1 µM	≤ 0.01 µM	0.1 to 1 µM	–	–	COCCOc1cc(F)c2c(Nc3ccc(NC(=O)CC(=O)NCC4CC(C)(C)C4)cc3)ncnc2c1 [Example 136]	0.01 to 0.1 µM
0.01 to 0.1 µM	0.01 to 0.1 µM	0.1 to 1 µM	0.1 to 1 µM	–	–	COCCOc1cc(F)c2c(Nc3ccc(NC(=O)CC(=O)N4CCC[C@@H]4C)cc3)ncnc2c1 [Example 196]	0.01 to 0.1 µM
0.01 to 0.1 µM	0.1 to 1 µM	0.01 to 0.1 µM	> 1 µM	–	–	COCCOc1cc(F)c2c(Nc3ccc(NC(=O)CC(=O)NCC4(C)CCOCC4)cc3)ncnc2c1 [Example 109]	0.01 to 0.1 µM
0.01 to 0.1 µM	–	–	–	–	–	COCCOc1cc(F)c2c(Nc3ccc(NC(=O)NCC4CCOCC4)cc3)ncnc2c1 [Example 13]	0.01 to 0.1 µM
0.01 to 0.1 µM	–	–	–	–	–	COCCOc1cc(F)c2c(Nc3ccc(NC(=O)N[C@@H]4CCOC4)cc3)ncnc2c1 [Example 14]	0.1 to 1 µM
0.1 to 1 µM	–	–	–	–	–	COCCOc1cc(F)c2c(Nc3ccc(NC(=O)NCCC(C)(C)OC)nc3)ncnc2c1 [Example 24]	0.1 to 1 µM
≤ 0.01 µM	–	–	–	–	–	COCCOc1cc(F)c2c(Nc3ccc(NC(=O)NCCC4CCCC4)cc3)ncnc2c1 [Example 21]	≤ 0.01 µM
0.01 to 0.1 µM	–	–	–	–	–	COCCOc1cc(F)c2c(Nc3ccc(NC(=O)NCC4COC4)cc3)ncnc2c1 [Example 11]	0.1 to 1 µM
≤ 0.01 µM	–	–	–	–	–	COCCOc1cc(F)c2c(Nc3ccc(NC(=O)NCCC4(C(F)(F)F)CC4)cc3)ncnc2c1 [Example 17]	≤ 0.01 µM
≤ 0.01 µM	–	–	–	–	–	COCCOc1cc(F)c2c(Nc3ccc(NC(=O)NCCC(C)(C)C(F)(F)F)cc3)ncnc2c1 [Example 1, 1-(4-((5-fluoro-7-(2-methoxyethoxy)quinazolin-4-yl)amino)phenyl)-3-(4,4,4-trifluoro-3,3-dimethylbutyl)urea]	≤ 0.01 µM
0.1 to 1 µM	–	–	–	–	–	COCCOc1cc(F)c2c(Nc3ccc(NC(=O)CCC(C)(C)F)cc3)ncnc2c1 [Example 23]	0.1 to 1 µM
0.01 to 0.1 µM	–	–	–	–	–	COCCOc1cc(F)c2c(Nc3ccc(NC(=O)NC4CCOCC4)cc3)ncnc2c1 [Example 12]	0.1 to 1 µM
0.01 to 0.1 µM	–	–	–	–	–	COCCOc1cc(F)c2c(Nc3ccc(NC(=O)CCC(C)(C)C)cc3)ncnc2c1 [Example 3, N-(4-((5-fluoro-7-(2-methoxyethoxy)quinazolin-4-yl)amino)phenyl)-4,4-dimethylpentanamide]	0.1 to 1 µM
